One test concerns PAK1. Put plainly: KINOMEscan. The following applies: 50000 nM.
The subject of a further test is Akt S473 phosphorylation. As to the kind of experiment: pS473-Akt HTRF assay. Format: cell-based, Mouse. How it is done:
Neuro 2A cells were seeded (4,000 cells/well) in 4 µL of DMEM with 0.5% FBS and 1x Penicillin/Streptomycin in white solid bottom tissue-culture treated 1536-well plates (Greiner, 789173-F) with MultiDrop Combi Dispenser (Thermo Scientific). The cells were incubated for 24 h at 37 °C, 5% CO2, 95% humidity. Twenty-three nL of tested compounds were transferred to each well with an automated pin-tool station (Kalypsys). Following incubation for 15 min at 37 °C, 0.5 µL IGF (500 ng/mL of final concentration) was added and incubated for additional 40 min at 37 °C. After the addition of 1.5 µL 4x lysis buffer and 15-min incubation at room temperature (25 °C), 2 µL of HTRF® conjugated antibodies (fluorophore d2 conjugated anti-Akt monoclonal antibody and Europium^3+ cryptate-labeled anti-pS473-Akt monoclonal antibody, obtained from CisBio, 1:80 dilution) were added with BioRAPTR FRD™ (Beckman Coulter). The plates were incubated at room temperature for 20 h. The signal was measured by EnVision Multilabel Plate Reader (PerkinElmer) with excitation at 330 nm, emission at 620 nm (donor) and 665 nm (acceptor). Results were calculated and analyzed in a format of the ratio 665 nm/620 nm multiplied by 10^4.
Relative activity was calculated by normalizing each HTRF signal from each sample well to the mean HTRF signal from the DMSO-only control wells.
The Library of Pharmacologically Active Compounds (LOPAC, 1280 compounds) and the Molecular Library Small Molecular Repository Library (MLSMR, 373,868 compounds) were obtained from Sigma-Aldrich.
Quantitative HTS (qHTS) and curve response class classification
The qHTS screen was performed as described previously1. Each compound was titrated in seven concentrations. The final concentrations of the compounds assayed ranged from 4.9 nM to 76.6 µM. The curve response classifications (CRC), which can be used to depict potency, efficacy and reliability of the data, and to estimate an IC50 value, were determined by a customized software2. […]
Sigma-Aldrich) and the basal response (0% inhibition) was set to the DMSO control.
Efficacy of a compound refers to the highest response normalized to the maximal response of LY. The CRCs were grouped into 4 categories. Class 1 are well-fit and have both upper and lower asymptotes with efficacy greater than 30%
(Class1.1, >80% efficacy; Class 1.2; 30-80% efficacy). Class 2 are incomplete with only one asy mptote (Class 2.1, > 80% efficacy; Class 2.2, 30-80% % efficacy). Class 3 display activity only at the highest concentrations and efficacy >30%. Class 4 are with low efficacy (<30%) or no response and considered inactive3.
Background: Time-resolved FRET reads energy transfer from a long-lived donor to a nearby acceptor.

The subject of a further test is BMX. Put plainly: KINOMEscan. The settings on record: 50000 nM.
In another test the test system is MAPKAPK2. As to the kind of experiment: KINOMEscan. The following applies: 50000 nM.
The test system of the next test is EGFR(L747-T751del,Sins). As to the kind of experiment: KINOMEscan. The settings on record: 50000 nM.
The next test deals with TXK. As to the kind of experiment: KINOMEscan. The following applies: 50000 nM.
For another test, the system named is CSNK1G3. As to the kind of experiment: KINOMEscan. The following applies: 50000 nM.
Another test concerns EPHA2. Put plainly: KINOMEscan. The settings on record: 50000 nM.
A further test deals with MAP3K1. As to the kind of experiment: KINOMEscan. The settings on record: 50000 nM.
The test system of another test is BRAF(V600E). As to the kind of experiment: KINOMEscan. The settings on record: 50000 nM.
A further test deals with EIF2AK1. Put plainly: KINOMEscan. The settings on record: 50000 nM.
The next test has as its system DAPK1. Put plainly: KINOMEscan. The settings on record: 50000 nM.
The next test concerns GSK3B. As to the kind of experiment: KINOMEscan. The settings on record: 50000 nM.
Another test deals with EPHB3. Put plainly: KINOMEscan. The settings on record: 50000 nM.
The next test deals with Akt T308 phosphorylation. Put plainly: Western blot analysis of T308 phosphorylation. Format: cell-based. The following applies: Mus musculus, N2a, 0.5 h; Neuro 2A cells, G7 30 min then IGF 30 min. As to the method:
The following criteria were applied for hit selection from the primary screen: 1, hits in robust curve classes (1/2/3) with efficacy greater than 30% were considered active; 2, these hits were filtered for donor interference; 3, hits were further filtered by reactive and promiscuous functional groups, as previously described4; 4, hits were clustered by structural similarity using Leadscope Hosted Client (Leadscope Inc., Columbus, […]
Neuro 2A cells were seeded in 12-well plates in DMEM containing 5% FBS for 24 hr.
After overnight serum starvation (in 0% FBS DMEM), cells were incubated for 30 min at 37 °C with G7 or LY294002 or Torin 1 (Sigma Aldrich) at various concentrations, or DMSO control. IGF-1 was added to each well at a final concentration of 100 ng/mL. After 30-min incubation cells were washed with cold PBS and lysed with 50 µL lysis buffer containing 1% Triton X-100 and protease/phosphatase inhibitors (Cell Signaling Technology) or RIPA buffer (Santa Cruz Biotech). […]
anti- GAPDH (14C10) antibody (#2118) (all antibodies were from Cell Signaling Technology unless indicated, 1:1000 dilution was used) at 4°C overnight, washed three times with TBS-T, then incubated with peroxidase-conjugated secondary antibody (Sigma-Aldrich) for 1 hr at room temperature. […] Band intensity was quantitated using Kodak 1D imaging analysis software. […]
A general note: In western blotting, separated proteins are transferred to a membrane and probed.

Another test deals with PRKCE. Put plainly: KINOMEscan. The following applies: 50000 nM.

As usually defined, the IC50 is the midpoint of a concentration-inhibition curve.

Experimental for BMX: KINOMEscan™ selectivity screen
(§1) Briefly, Kinase-tagged T7 phage strains were grown in parallel in an E. coli host derived from the BL21 strain. E. coli were grown to log-phase and infected with T7 phage from a frozen stock and incubated with shaking at 32°C until lysis (90-150 minutes). The kinases were produced in HEK-293 cells and subsequently tagged with DNA for qPCR detection. Streptavidin-coated magnetic beads were treated with biotinylated small molecule ligands to generate affinity resins for kinase
(§2) inhibitor or DMSO control was performed in polypropylene 384-well plates for 1 hr at room temperature. After wash with PBS buffer containing 0.05% Tween 20, the beads were incubated in elution buffer (PBS containing 0.05 % Tween 20 and 0.5 μM non-biotinylated affinity ligand) for 30 minutes at room temperature. The kinase concentration in the eluates was measured by qPCR.
Experimental for BRAF(V600E): KINOMEscan™ selectivity screen
(§3) The assay was perfor med at DiscoveRx Corporation according the methods published previously5. Briefly, Kinase-tagged T7 phage strains were grown in parallel in an E. coli host derived from the BL21 strain. E. coli were grown to log-phase and infected with T7 phage from a frozen stock and incubated with shaking at 32°C until lysis (90-150 minutes). The kinases were produced in HEK-293 cells and subsequently tagged with DNA for qPCR detection. Streptavidin-coated magnetic beads were treated with biotinylated small molecule ligands to generate affinity resins for kinase
as §2
Experimental for CSNK1G3: KINOMEscan™ selectivity screen
as §1, §2
Experimental for DAPK1: KINOMEscan™ selectivity screen
as §3, §2
Experimental for EGFR(L747-T751del,Sins): KINOMEscan™ selectivity screen
as §1, §2
Experimental for EIF2AK1: KINOMEscan™ selectivity screen
as §3, §2
Experimental for EPHA2: KINOMEscan™ selectivity screen
as §1, §2
Experimental for EPHB3: KINOMEscan™ selectivity screen
The assay was perfor med at DiscoveRx Corporation according the methods published previously5. […] The kinases were produced in HEK-293 cells and subsequently tagged with DNA for qPCR detection. Streptavidin-coated magnetic beads were treated with biotinylated small molecule ligands to generate affinity resins for kinase
as §2
Experimental for GSK3B: KINOMEscan™ selectivity screen
as §1, §2
Experimental for MAP3K1: KINOMEscan™ selectivity screen
as §1, §2
Experimental for MAPKAPK2: KINOMEscan™ selectivity screen
as §3, §2
Experimental for PAK1: KINOMEscan™ selectivity screen
as §3, §2
Experimental for PRKCE: KINOMEscan™ selectivity screen
as §3, §2
Experimental for TXK: KINOMEscan™ selectivity screen
as §3, §2

As for `Oc1cc(-c2ccccc2)c2ccccc2n1` [G7, 4-phenylquinolin-2(1H)-one], the “Percent Control” value was determined as 82% with PAK1; 86% with BMX; 100% in the test on MAPKAPK2; 77% in the test with EGFR(L747-T751del,Sins); 93% in the test on TXK; 71% in the test with CSNK1G3. For the same molecule, the “Percent Control” value in the test on EPHA2 came to 100%; in the test on MAP3K1, 71%; with BRAF(V600E), 71%; in the test on EIF2AK1, 100%; in the test on DAPK1, 63%; in the test with GSK3B, 68%. The “Percent Control” value in the test with EPHB3 stood at 96%; in the test with PRKCE, 100%. For the same molecule, the IC50 was approximately 20 µM in the test with Akt S473 phosphorylation (Mus musculus, N2a, Neuro 2A cells, inhibitor 15 min before IGF, read-out: IC50) and 4.9 µM in the test with Akt T308 phosphorylation. Moreover, the maximum inhibition in the test on Akt S473 phosphorylation (compared to that of 100 µM LY) stood at 50%.

Values taken from publication PMC5601486, “Identification of 4-phenylquinolin-2(1H)-one as a specific allosteric inhibitor of Akt” (Scientific Reports, 2017).
